Data taken from the supplement of paper PMC8837787.

System: Saccharomyces cerevisiae ABC16-Green Monster
Experiment: growth inhibition at single dose (up to 150 µM), below the 70% cut-off for dose-response; higher = more potent
Details: 18 h; 30 °C; YPD
Outline: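 Data are given as percent growth inhibition. Log-phase drug-sensitive S. cerevisiae ABC16-Green Monster cells (OD600 0.1–0.2, 200 µl per well in 96-well plates) were treated in biological duplicates with each library compound at a single 150 µM dose, with untreated cultures alongside, and OD600 was measured at 0 h and after 18 h at 30 °C. Compounds falling below 70% in both replicates were not taken to dose-response.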

Compound | growth inhibition at single dose [%]
CC(=O)NC[C@@H]1CN(c2ccc(N3CCOCC3)c(F)c2)C(=O)O1 | < 70
CN(C)c1ccc(CNc2ncnc3ccccc23)cc1 | < 70
CC(Oc1ccccc1)C(=O)Nc1nc(-c2ccccn2)cs1 (stereo unspecified) | < 70
CCCOCc1cc(CN2CCN(c3cccc(Cl)c3)CC2)c(O)c2ncccc12 | < 70
CCOc1ccccc1NC(=O)/C=C/c1nnc2c3ccccc3cnn12 | < 70
NCCC(O)C(=O)N[C@@H]1C[C@H](N)[C@@H](OC2O[C@H](CN)[C@@H](O)[C@H](O)[C@H]2O)[C@H](O)C1OC1O[C@H](CO)[C@@H](O)[C@H](N)[C@H]1O (stereo partly specified) | < 70
Cc1c(C)n(CCN(C)C)c2ncn3nc(-c4ccccc4O)nc3c12 | < 70
Cc1cc(Nc2ccc3ccccc3c2)n2ncnc2n1 | < 70
Cc1cc(OCC(=O)Nc2ccc(C(C)C)cc2)n(C)c(=O)c1C#N | < 70
CC(C(=O)Nc1ccc2oc(-c3ccncc3)nc2c1)c1ccccc1 (stereo unspecified) | < 70
CN(Cc1ccc(C(N)=O)cc1)c1ncnc2ccccc12 | < 70
CNc1snc(C)c1C(=O)NCCOc1ccc(OC)cc1 | < 70
Cc1cc(C=C2SC(=Nc3ccccc3)N(C3CCCC3)C2=O)c(C)n1-c1ccc(Cl)cc1 | < 70
CN1CCN(c2nccc3nc(-c4ccc(F)c(F)c4)[nH]c23)CC1 | < 70
COc1ccc2nc(C)cc(Nc3cccc(O)c3)c2c1 | < 70
c1ccc(-c2[nH]c3ccccc3c2C(c2ccccn2)N2CCCC2)cc1 (stereo unspecified) | < 70
O=C1O[C@@H](COc2ccon2)CN1c1cc(F)c(C2=CCN(Cc3ccccc3)CC2)c(F)c1 | < 70
Cc1ccccc1OCCSc1nc2ccc(NC(=O)c3cccs3)cc2s1 | < 70
Oc1ccc(-c2nc(-c3ccc4oc5ccc(-c6[nH]c(-c7ccc(O)cc7)nc6-c6ccccc6)cc5c4c3)c(-c3ccccc3)[nH]2)cc1 | < 70
COc1cc(NS(=O)(=O)c2ccc(C)cc2)c(OC)cc1Cl | < 70
O=C(CSc1nccn2nc(-c3ccccc3)cc12)Nc1cc(C(F)(F)F)ccc1Cl | < 70
CCOc1ccccc1CN1CCc2nc3cc(C(C)(C)C)nn3c(O)c2C1 | < 70
O=C(Nc1cccc(C2=NCCN2)c1)Nc1cccc(C2=NCCN2)c1 | < 70

Compound | growth inhibition at single dose [%]
CCCCOC(=O)c1ccc(Nc2cc(C)nc3ccc(OC)cc23)cc1 | < 70
N#Cc1ccc(CN2CCCN(c3ncnc4sccc34)CC2)cc1 | < 70
O=S(=O)(c1ccc2ccccc2c1)N1CCCC1c1nnc2ccccn12 (stereo unspecified) | < 70
COc1cc(C(=O)Nc2nc3c(cc4c5c(cccc53)CC4)s2)cc(OC)c1OC | < 70
O=C(Nc1nc2c(s1)CCCC2)c1cc(F)c(F)c(F)c1F | < 70
COc1ccc(CN2CCCC(C(=O)c3ccc(C(F)(F)F)cc3)C2)c(O)c1 (stereo unspecified) | < 70
CCN1CCN(c2cc(C)c3cc(NC(=O)c4ccc(OC)c(OC)c4)ccc3n2)CC1 | < 70
CCOC(=O)c1cnc2c(C)cc(C)cc2c1Nc1ccc(OC)c(OC)c1 | < 70
O=C(Nc1cc(Cl)cc(Cl)c1)Nc1cc(Cl)cc(Cl)c1 | < 70
COc1ccccc1N1C(=N)SC(=Cc2ccc(OCc3ccccc3F)cc2)C1=O | < 70
Cc1cc(C(=O)CSc2nc3ccccc3[nH]2)c(C)n1-c1ccc(F)cc1 | < 70
COc1ccc(-c2c(C)nn3c(N)c(C#N)cnc23)cc1OC | < 70
CC1CCN(Cc2c(O)ccc3cc(-c4nc5ccccc5s4)c(=O)oc23)CC1 | < 70
CC(C)(C)c1ccc(O)c(CNC2CCCCC2)c1 | < 70
Cc1ccc(C)c(Cn2c(N3CCC(C(=O)NCc4cccs4)CC3)nc3ccccc32)c1 | < 70
CN1CCN(c2ncnc3c2[nH]c2ccc(Cl)cc23)CC1 | < 70
Cc1ccc(Nc2nccc(C(F)(F)F)n2)cc1S(=O)(=O)N(C)C | < 70
N#Cc1ccc(-c2cnc(N)c(-c3ccc(C(N)=O)cc3)n2)cc1 | < 70
Cc1nc(NCc2ccc(N3CCN(C)CC3)nc2)c2c(-c3ccccc3)csc2n1 | < 70
CN1CCN(c2nccc3[nH]c(-c4cccc(F)c4)cc23)CC1 | < 70
O=C(Nc1ccc(F)c(-c2nc3cc(-c4ccccc4)cnc3[nH]2)c1)N1CCCC1 | < 70
Nc1nc(N)c2c3c(sc2n1)CN(Cc1ccccc1)CC3 | < 70
O=C(Nc1ccc2c(c1)OC1(CCCCC1)O2)c1ccc[nH]c1=S | < 70

Compound | growth inhibition at single dose [%]
Cc1ccc(S(=O)(=O)N2c3ccc(S(N)(=O)=O)cc3CC2C)cc1 (stereo unspecified) | < 70
Cc1cc(N2CCCC2)nc(Nc2ccc(NC(=O)CCc3ccccc3)cc2)n1 | < 70
O=C(COc1ccc2[nH]c3ccccc3c(=O)c2c1)Nc1ccccc1Cc1ccccc1 | < 70
COc1ccc(-[n+]2c(C)cn3c2CCc2ccccc2-3)cc1 | < 70
CC/N=c1\scc(-c2ccc(Cl)cc2)n1/N=C/c1ccc[nH]1 | < 70
Cc1ccccc1NC(=O)c1cc2ccccc2c(CN2CCC3(CC2)OCCO3)c1O | < 70
N=c1n(CCN2CCCCC2)c2ccccc2n1CC(O)c1cccc(Br)c1 (stereo unspecified) | < 70
Cc1cccc(-c2nnc(Sc3nc(C)nc4sc5c(c34)CCCC5)n2CC(N)=O)c1 | < 70
Cc1ccccc1C(=O)N1N=C(Nc2ccccc2)SC1(C)C | < 70
CN(C)c1ccc(N2C(N)=NC(N)=NC2(C)C)cc1 | < 70
CCCc1ccc(-c2nc(-c3cccs3)no2)cc1 | < 70
CCOc1ccc2nc(C)cc(Nc3ccc(N(C)C)cc3)c2c1 | < 70
CN1N=C2c3ccccc3CCC2C1c1ccc(C(F)(F)F)cc1 (stereo unspecified) | < 70
CN(c1ccccc1)S(=O)(=O)c1ccc(NC(=O)c2cccs2)cc1 | < 70
O=C(COc1ccc(Oc2ccccc2)cc1)NCc1cn2ccccc2n1 | < 70
COc1cc(/C=N/NC(=O)c2ccccc2NS(=O)(=O)c2cccs2)ccc1OCCC(C)C | < 70
Cc1c(C)n(CCCO)c2ncn3nc(-c4ccc(N(C)C)cc4)nc3c12 | < 70
Cc1ccc2nc(C)c(-c3ccn(Cc4ccccc4)n3)n2c1 | < 70
C=CCn1c(C)cc(C(=O)CNC(=O)Nc2ccccc2)c1C | < 70
COc1cccc(N(C)S(=O)(=O)c2cccc3cc(C)cnc23)n1 | < 70
COc1ccc(-c2csc3ncnc(Sc4nnc(-c5cccc(C)c5)n4CC(N)=O)c23)cc1 | < 70
CCOC(=O)c1c(C)n(-c2ccc(Cl)cc2)c2ccc(OC(=O)C=Cc3ccccc3)cc12 | < 70
COc1ccc(Nc2cc(C)nc(-n3nc(C)cc3C)n2)cc1 | < 70

Compound | growth inhibition at single dose [%]
CCOC(=O)CC(=O)CSc1nnc(-c2ccccc2Cl)n1-c1ccccc1F | < 70
Cc1cc(C(=O)Cn2c(CO)nc3ccccc32)c(C)n1Cc1ccco1 | < 70
O=C(Nc1ccc(Cl)cc1C(=O)Nc1ccncc1)c1ccc(Cl)cc1Cl | < 70
CC(C)(C)c1ccc(C(=O)Nc2ncccc2O)cc1 | < 70
COc1ccc(C2C(C(=O)Nc3cccc(OC)c3)c3ccccc3C(=O)N2C2CCCCC2)cc1 (stereo unspecified) | < 70
COCCN1COc2c(cc(Cl)c3cccnc23)C1 | < 70
CC(=O)c1c(C)[nH]c(C(=O)Nc2ccc(Oc3ccccc3Cl)cc2)c1C | < 70
O=C(Nc1ccccc1O)c1ccc(Oc2cccc(C(=O)Nc3ccccc3O)c2)cc1 | < 70
CC1CCCCN1CCCNC(=O)c1ccc2c(c1)sc1nc(-c3ccc(F)cc3)cn12 (stereo unspecified) | < 70
CC1(C)OB(O)c2ccc(C3=NOC(c4cc(Cl)c(F)c(Cl)c4)(C(F)(F)F)C3)cc21 (stereo unspecified) | < 70
CCOc1ccc(-c2nc(NC(=O)CS(=O)(=O)c3ccccc3)sc2C)cc1 | < 70
COc1ccccc1C(=O)ON=C(N)Cc1cccc2ccccc12 | < 70
Nc1c(C(=O)N2CCOCC2)sc2nc3c(cc12)CCCCC3 | < 70
OC(c1cn2cc(-c3ccc(F)cc3)nc2s1)(C(F)(F)F)C(F)(F)F | < 70
Cc1ccc(Cn2ccs/c2=N/C(=O)c2cc3c(s2)CCCCC3)cc1 | < 70
CC(Oc1ccc(Cl)cc1)C(=O)Nc1sccc1C(N)=O (stereo unspecified) | < 70
O=C(NCCc1ccn(-c2ccccc2)n1)C1CCCCC1 | < 70
COc1ccc(CNC(=O)c2cc3c(=O)n4ccccc4nc3n(CCc3ccccc3)c2=N)cc1 | < 70
O=C(NCC(c1ccsc1)N1CCCCCC1)c1ccc(C(F)(F)F)cc1 (stereo unspecified) | < 70
CC(C)=CCN1CCC(C(=O)Nc2ccc(-c3nc4ccccc4[nH]3)cc2)CC1 | < 70
Cc1[nH]c2ccc(F)cc2c(=O)c1I | < 70
Nc1nc(Nc2cc(Cl)cc(Cl)c2)c2[nH]cnc2n1 | < 70
